pIC50, pKi: −log10 of the molar value.
Tests used:
[1] = primates, Brain, 1.417 h
[2] = primates, Brain
[3] = rhesus monkey, in vivo
[4] = biological target: Prostaglandin G/H synthase 1 (Homo sapiens, UniProt P23219)
[5] = biological target: Sphingosine 1-phosphate receptor 2 (Homo sapiens, UniProt O95136)
[6] = cynomolgus monkey, in vivo, 2 h
[7] = rhesus monkey, in vivo; remark: listed apart in the source
[8] = mouse, in vivo, 0.05 h
[9] = mouse, in vivo, 10 min
in vivo [10] = conditions: rat
[11] = rat, in vivo, 2 h
[12] = biological target: T1, Prostaglandin G/H synthase 2 (Homo sapiens, UniProt P35354)
T1 sequence (P35354 whole entry): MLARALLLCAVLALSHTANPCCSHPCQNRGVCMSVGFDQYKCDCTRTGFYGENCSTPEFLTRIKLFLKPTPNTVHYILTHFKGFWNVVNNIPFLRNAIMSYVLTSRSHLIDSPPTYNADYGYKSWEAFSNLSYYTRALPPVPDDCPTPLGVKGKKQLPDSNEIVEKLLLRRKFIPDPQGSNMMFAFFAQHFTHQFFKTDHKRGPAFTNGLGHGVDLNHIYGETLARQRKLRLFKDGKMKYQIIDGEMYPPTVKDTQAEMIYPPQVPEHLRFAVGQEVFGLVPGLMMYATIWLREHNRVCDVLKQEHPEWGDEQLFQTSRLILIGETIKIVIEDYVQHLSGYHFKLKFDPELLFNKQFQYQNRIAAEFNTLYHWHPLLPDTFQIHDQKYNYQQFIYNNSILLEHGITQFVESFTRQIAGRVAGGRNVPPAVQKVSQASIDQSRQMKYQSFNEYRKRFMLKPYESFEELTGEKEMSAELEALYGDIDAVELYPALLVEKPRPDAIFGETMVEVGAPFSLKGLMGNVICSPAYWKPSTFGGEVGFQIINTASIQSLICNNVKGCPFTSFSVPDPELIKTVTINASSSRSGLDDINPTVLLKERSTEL

in vivo [13] = conditions: mouse
in vivo [14] = conditions: mouse; remark: listed apart in the source
[15] = mouse, in vivo
[16] = human, Brain, 2 min
in vivo [17] = conditions: C3H, mouse, iv, 10 mg/kg
in vivo [18] = conditions: C3H, mouse, iv, 10 mg/kg; remark: listed apart in the source
[19] = primates, Brain; remark: listed apart in the source
physchem = conditions: octanol/water
in vivo [20] = conditions: C57BL/6, mouse
[21] = biological target: T2, Amine oxidase [flavin-containing] B (Homo sapiens, UniProt P27338)
T2 sequence (P27338 whole entry): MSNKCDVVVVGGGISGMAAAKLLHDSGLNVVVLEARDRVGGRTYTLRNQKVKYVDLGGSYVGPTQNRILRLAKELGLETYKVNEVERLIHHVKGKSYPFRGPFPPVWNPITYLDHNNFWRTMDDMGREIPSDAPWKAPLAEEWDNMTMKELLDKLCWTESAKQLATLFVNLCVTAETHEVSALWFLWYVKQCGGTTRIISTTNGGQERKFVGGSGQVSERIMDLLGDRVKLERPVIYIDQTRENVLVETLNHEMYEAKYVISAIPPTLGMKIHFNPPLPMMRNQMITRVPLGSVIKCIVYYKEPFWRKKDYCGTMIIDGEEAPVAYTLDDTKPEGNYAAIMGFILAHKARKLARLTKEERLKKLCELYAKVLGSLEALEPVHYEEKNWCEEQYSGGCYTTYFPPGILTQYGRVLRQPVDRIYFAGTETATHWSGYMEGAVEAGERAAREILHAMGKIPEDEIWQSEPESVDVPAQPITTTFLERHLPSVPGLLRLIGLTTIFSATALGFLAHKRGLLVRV

[22] = papio anubis, in vivo
[23] = papio anubis, in vivo; remark: listed apart in the source
[24] = mouse, in vivo; remark: listed apart in the source
[25] = mouse, in vivo, 20 min
in vivo [26] = conditions: mouse, hcc4006
in vivo [27] = conditions: mouse; remark: listed apart in the source
[28] = mouse, in vivo; remark: listed apart in the source
in vivo [29] = conditions: mouse; remark: listed apart in the source
[30] = rhesus monkey, in vivo, 7 min
[31] = rhesus monkey, in vivo, 7 min; remark: listed apart in the source
[32] = primates, Brain, 4 min
Cannabinoid receptor 2 = Cannabinoid receptor 2 (Homo sapiens, UniProt P34972)
[33] = biological target: T2, Amine oxidase [flavin-containing] B; remark: listed apart in the source
[34] = papio papio, in vivo
P2X purinoceptor 7 = biological target: T3, P2X purinoceptor 7 (Homo sapiens, UniProt Q99572)
T3 sequence (Q99572 whole entry): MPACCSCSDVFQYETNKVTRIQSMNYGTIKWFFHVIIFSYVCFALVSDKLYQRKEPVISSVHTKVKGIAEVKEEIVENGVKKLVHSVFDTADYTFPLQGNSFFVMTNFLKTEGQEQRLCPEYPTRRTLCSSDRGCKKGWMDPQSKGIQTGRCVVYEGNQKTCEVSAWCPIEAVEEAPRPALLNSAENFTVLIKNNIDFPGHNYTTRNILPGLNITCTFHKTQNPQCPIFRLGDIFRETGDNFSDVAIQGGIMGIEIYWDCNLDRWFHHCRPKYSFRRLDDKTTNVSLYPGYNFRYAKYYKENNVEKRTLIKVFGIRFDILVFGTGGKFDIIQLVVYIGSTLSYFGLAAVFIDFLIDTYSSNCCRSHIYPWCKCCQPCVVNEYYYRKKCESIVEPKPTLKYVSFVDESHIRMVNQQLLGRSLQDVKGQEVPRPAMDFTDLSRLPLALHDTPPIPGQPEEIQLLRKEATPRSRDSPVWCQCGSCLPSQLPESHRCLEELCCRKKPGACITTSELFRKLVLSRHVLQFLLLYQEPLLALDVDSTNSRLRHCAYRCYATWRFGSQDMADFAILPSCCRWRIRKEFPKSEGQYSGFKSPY

[35] = biological target: Sphingosine 1-phosphate receptor 1 (Homo sapiens, UniProt P21453)
Sphingosine 1-phosphate receptor 1, sequence (P21453 whole entry): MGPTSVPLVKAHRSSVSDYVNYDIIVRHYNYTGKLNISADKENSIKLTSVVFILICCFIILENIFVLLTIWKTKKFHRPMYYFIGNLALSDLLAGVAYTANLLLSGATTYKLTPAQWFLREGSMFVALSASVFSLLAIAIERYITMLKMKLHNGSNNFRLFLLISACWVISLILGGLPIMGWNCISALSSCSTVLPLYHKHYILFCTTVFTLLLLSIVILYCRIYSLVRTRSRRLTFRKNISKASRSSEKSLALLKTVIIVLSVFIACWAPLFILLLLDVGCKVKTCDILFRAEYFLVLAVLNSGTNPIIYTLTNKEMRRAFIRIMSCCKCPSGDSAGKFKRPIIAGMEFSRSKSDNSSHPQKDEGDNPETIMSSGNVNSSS

Prostaglandin G/H synthase 1, sequence (P23219 whole entry): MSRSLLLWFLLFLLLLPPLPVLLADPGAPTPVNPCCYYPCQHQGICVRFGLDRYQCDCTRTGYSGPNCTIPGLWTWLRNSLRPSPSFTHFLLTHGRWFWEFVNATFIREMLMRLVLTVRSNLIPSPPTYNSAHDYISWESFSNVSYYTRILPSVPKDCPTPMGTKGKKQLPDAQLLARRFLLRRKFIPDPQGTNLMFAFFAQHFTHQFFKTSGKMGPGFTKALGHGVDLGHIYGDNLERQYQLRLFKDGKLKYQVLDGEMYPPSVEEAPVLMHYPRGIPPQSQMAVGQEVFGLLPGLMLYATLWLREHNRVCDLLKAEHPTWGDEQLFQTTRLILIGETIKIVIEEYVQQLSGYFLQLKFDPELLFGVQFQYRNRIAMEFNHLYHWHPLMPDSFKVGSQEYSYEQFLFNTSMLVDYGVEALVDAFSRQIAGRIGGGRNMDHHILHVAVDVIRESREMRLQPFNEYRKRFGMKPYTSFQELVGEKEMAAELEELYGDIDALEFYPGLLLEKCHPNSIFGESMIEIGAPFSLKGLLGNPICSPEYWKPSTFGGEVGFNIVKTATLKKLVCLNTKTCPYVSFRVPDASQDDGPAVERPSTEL
Sphingosine 1-phosphate receptor 2, sequence (O95136 whole entry): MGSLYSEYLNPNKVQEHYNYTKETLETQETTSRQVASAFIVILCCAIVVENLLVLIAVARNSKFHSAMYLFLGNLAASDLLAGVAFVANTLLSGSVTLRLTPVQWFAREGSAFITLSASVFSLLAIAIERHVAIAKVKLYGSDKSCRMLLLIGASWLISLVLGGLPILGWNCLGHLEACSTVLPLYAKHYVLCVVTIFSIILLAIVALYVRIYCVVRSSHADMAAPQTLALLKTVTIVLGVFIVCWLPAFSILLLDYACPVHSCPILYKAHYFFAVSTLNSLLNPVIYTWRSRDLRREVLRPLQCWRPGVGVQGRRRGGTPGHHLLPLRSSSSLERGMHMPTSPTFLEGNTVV
Cannabinoid receptor 2, sequence (P34972 whole entry): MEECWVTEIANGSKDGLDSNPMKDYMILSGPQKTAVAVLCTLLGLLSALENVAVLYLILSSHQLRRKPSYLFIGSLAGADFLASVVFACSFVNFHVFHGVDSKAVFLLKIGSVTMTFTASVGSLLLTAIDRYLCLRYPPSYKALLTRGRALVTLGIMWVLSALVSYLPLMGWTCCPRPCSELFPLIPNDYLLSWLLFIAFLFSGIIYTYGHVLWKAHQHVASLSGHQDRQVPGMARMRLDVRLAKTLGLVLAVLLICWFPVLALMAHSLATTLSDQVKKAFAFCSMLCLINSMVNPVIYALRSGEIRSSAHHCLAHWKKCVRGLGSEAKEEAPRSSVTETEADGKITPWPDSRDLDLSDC

## COc1ccc(-c2nc(O[11CH3])nn2-c2ccc(OC)cc2)cc1
[1]
  SUV: 0.62
[2]
  SUV: 4.26

## CS(=O)(=O)c1ccc(-c2cc(O[11CH3])nc(NCc3cccs3)n2)cc1
[3]
  Drug uptake: 41%
[4]
  pIC50: < 6.00

## Cc1nn(C)c2nc(NNC(=O)Nc3cc(Cl)nc(Cl)c3)cc(C(C)C)c12
[5]
  pIC50: 7.16

## [11CH3]Oc1ccc(-c2c(-c3ccc(S(N)(=O)=O)cc3)[nH]c3ccccc23)cc1
[4]
  pIC50: 5.00

## C#CCN(C)[C@H](C[18F])Cc1ccccc1
[6]
  SUV: 6

## [11CH3]Oc1ccc(Cc2ccncc2)nc1-c1cccc([N+](=O)[O-])c1
[7]
  Vd: 48%

## [13CH3]N1C=C(C(N)=O)Cc2ccccc21
[8]
  SUV: 3.5

## O=C(O)C1CN(Cc2ccc(-c3noc(-c4ccc(OCC[18F])c(C(F)(F)F)c4)n3)cc2)C1
[9]
  SUV: 7
In vivo [10]
  tissue uptake at 5 min: 0.027 %ID/g

## Cc1ccc(-n2nc(C(F)(F)F)cc2-c2ccc(S(=O)(=O)Nc3ccc([18F])cc3)cc2)cc1
[4]
  pIC50: 4.00

## CS(=O)(=O)c1ccc(-c2ccsc2-c2ccc(F)cc2)cc1
[11]
  SUV: 0.17
[12]
  pKi: 6.60

## CS(=O)(=O)c1ccc(-c2cc(C(F)(F)F)nc(NCc3ccc([18F])cc3)n2)cc1
In vivo [13]
  tissue uptake at 1 h: 3.79 %ID/g
In vivo [14]
  tissue uptake at 1 h: 1.74 %ID/g

## NS(=O)(=O)c1ccc(-n2nc3ccccc3c2-c2ccc([18F])cc2)cc1
[4]
  pIC50: 4.52

## COC(=O)C([11CH3])c1cccc(C(=O)c2ccccc2)c1 (centres undefined)
[15]
  SUV: 0.97
[16]
  SUV: 1.5
[4]
  pIC50: 7.33

## CN([11CH3])CCc1ccccc1
In vivo [17]
  tissue uptake at 1 h: 2.8 %ID/g
In vivo [18]
  tissue uptake at 1 min: 7.9 %ID/g

## COc1ccc(-n2nc(OCC(F)(F)F)nc2-c2ccc(O[11CH3])cc2)cc1
[1]
  SUV: 1.99
[2]
  SUV: 4.29
[19]
  SUV: 54%

## CCOCCn1cc(C(=O)NC23CC4CC(CC(C4)C2)C3)c(=O)c2cccc(OC)c21
physchem
  logD: 2.8

## Cc1ccccc1-c1ccc(-c2nc(-c3ccc(CN(C)CCC(=O)O)c(F)c3)no2)cc1C(F)(F)F
In vivo [20]
  tissue uptake at 1 h: 7 %ID/g

## COCC1CN(c2noc3cc(OCCCC(F)(F)F)ccc23)[11C](=O)O1 (centres undefined)
[21]
  pKi: 8.54
[22]
  Vd: 10.3 ml/cm3
[23]
  Vd: 10.9 ml/cm3

## CN1c2cc(N)ccc2-c2ccc(N)cc2C1c1ccc(OCC[18F])cc1 (centres undefined)
[24]
  Drug uptake: 10 %ID/cm3
[25]
  Drug uptake: 150%

## [11CH3]Oc1ccc(Cc2cn[nH]c2)nc1-c1cccc([N+](=O)[O-])c1
[7]
  Vd: 37%

## Cc1ccc(-c2ccc3cc(OC[C@H](O)C[18F])ccc3n2)cn1
In vivo [26]
  tissue uptake at 2 min: 7.85 %ID/g
In vivo [27]
  tissue uptake at 2 min: 0.2 %ID/g

## O=C1Nc2c(Cl)ccc(OCC[18F])c2C2(CCCCC2)N1
[28]
  SUV: 1.74
In vivo [29]
  tissue uptake: 5 %ID/g

## [2H]C([2H])([18F])Oc1nc(-c2ccc(OC)cc2)n(-c2ccc(OC)cc2)n1
[30]
  SUV: 4.11
[1]
  SUV: 1.99
[31]
  SUV: 1.05
[19]
  SUV: 54%

## OCCOCCOCc1ccc(-c2noc(-c3ccc(OCC[18F])c(C(F)(F)F)c3)n2)cc1
[2]
  SUV: 0.7

## OCc1cn(Cc2ccc(-c3noc(-c4ccc(OCC[18F])c(C(F)(F)F)c4)n3)cc2)nn1
In vivo [10]
  tissue uptake at 5 min: 0.46 %ID/g

## CS(=O)(=O)c1ccc(-n2c(-c3ccc(O[11CH3])c(F)c3)cnc2Cl)cc1
[4]
  pIC50: 5.48

## OCc1ccc(-c2noc(-c3ccc(OCC[18F])c(C(F)(F)F)c3)n2)cc1
[32]
  SUV: 3.8

## CCCCOc1c(OC)ccc2cc(C(=O)NC3CCCCC3)c(=O)[nH]c12
Cannabinoid receptor 2
  pKi: 8.02

## N#CCCn1nc(-c2ccc(OCc3ccccc3)cc2)o[11c]1=O
[33]
  pIC50: 8.40
[34]
  Drug uptake: 70%

## CN1c2cc(N)ccc2-c2ccc(N)cc2C1c1ccc([18F])cc1 (centres undefined)
[28]
  SUV: 2.3

## [11CH3]Oc1ccc(-c2cnc(Cl)n2-c2ccc(S(N)(=O)=O)cc2)cc1F
[4]
  pIC50: 5.00

## [11CH3]N1C(=O)CC[C@H]1C(=O)NCc1cccc(C(F)(F)F)c1Cl
P2X purinoceptor 7
  pIC50: 8.52

## COc1ccc(CC(=O)NC(N/C(=N/C#N)Nc2cccc3ncccc23)C(C)(C)C)cc1O[11CH3] (centres undefined)
P2X purinoceptor 7
  pIC50: 7.40

## OCC(O)c1ccc(-c2noc(-c3ccc(OCC[18F])c(C(F)(F)F)c3)n2)cc1 (centres undefined)
[32]
  SUV: 2.5
[35]
  pIC50: 7.81

Reference: ChEMBL document CHEMBL5150013, “The Repertoire of Small-Molecule PET Probes for Neuroinflammation Imaging: Challenges and Opportunities beyond TSPO” (J Med Chem, 2021)
